Assay results reported in paper PMC6747088, “THP-1 Cells and Pro-Inflammatory Cytokine Production: An In Vitro Tool for Functional Characterization of NOD1/NOD2 Antagonists” (International Journal of Molecular Sciences, 2019).

Columns and labels:
THP-1 cells [1] = assay: IL-8 and TNF-α release from THP-1 cells treated with the compound alone or with LPS; format: cell-based, human; conditions: 20 h; for TNF-α release from naive THP-1 cells: agonist alone; for IL-8 release from naive THP-1 cells: MDP 2–200 µM, C12-iE-DAP 2–50 µM; for effect on LPS-induced TNF-α production: agonist 10 µM in combination with 1 ng/mL LPS
Method: THP-1 cells represent a convenient, robust, and reproducible alternative, which enables intra-assay comparison. A consistent protocol is of key importance to evaluate the compounds in a reproducible and unbiased manner. […] Recognition of an NOD1/NOD2 agonist triggers a signaling pathway leading to the activation of NF-κB and the production of pro-inflammatory cytokines (e.g., TNF-α, IL-1β, IL-6, IL-8). To define the optimal experimental conditions, preliminary experiments were conducted with C12-iE-DAP (lauroyl-γ-D-glutamyl-meso-diaminopimelic acid), an acylated derivative of iE-DAP, as a reference NOD1 agonist, and MDP as a NOD2 agonist. For isolated stimulation of NOD2 and NOD1 receptors, increasing concentrations of MDP (2–200 µM) and C12-iE-DAP (2–50 µM) were used, and the exposure time of 20 h was chosen based on previous experiments using THP-1 cells.
Figure 1 Dose-dependent effect of NOD1/NOD2 agonists on IL-8 (A) and TNF-α (B) secretion from THP-1 cells. IL-8 and TNF-α release from THP-1 cells were measured following 20 h treatment with increasing concentrations (up to 200 µM) of either C12-iE-DAP (NOD1 agonist) or MDP (NOD2 agonist). Columns represent means of duplicates ± SD of three independent experiments; * p < 0.05 vs. CTRL (Mann–Whitney test). Synergy of NOD1/NOD2 agonists and LPS (TLR4 agonist) on IL-8 (C) and TNF-α (D) secretion. IL-8 and TNF-α release from THP-1 cells were measured following 20 h treatment with either C12-iE-DAP or MDP, both at 2 and 10 µM, in the presence or absence of increasing concentrations of LPS (1 or 10 ng/mL). Columns represent means of duplicates ± SD of three independent experiments; * p < 0.05 vs. CTRL (Mann–Whitney test).
(§1) For all experiments, THP-1 cells (Istituto Zooprofilattico di Brescia, Brescia, Italy) were diluted to 10^6 cells/mL in RPMI 1640 containing 2 mM L-glutamine, 0.1 mg/mL streptomycin, 100 IU/mL penicillin, 50 μM 2-mercaptoethanol, and supplemented with 10% heat-inactivated fetal calf serum (media) and cultured at 37 °C in 5% CO2. The experiments were carried out on passages 3–12. To evaluate IL-8 and TNF-α production, cultures were set up in 24-well culture plates containing 500 μL of cells. They were pretreated with selected NOD antagonists at increasing concentrations for 1 h before the addition of either MDP or C12-iE-DAP (both at 10 µM) and then incubated for 20 h. Each concentration was tested in duplicate, and untreated cells were exposed to DMSO, which represented the vehicle control (not exceeding 0.2% final concentration). In synergy studies, cells were additionally stimulated with lipopolysaccharide (LPS, from Escherichia coli serotype 0127:B8, Sigma) at a final concentration of 1–10 ng/mL, as indicated in the figure legends. Cell-free supernatants were collected at 20 h by centrifugation at 3000 rpm for 5 min and stored at −80 °C.
(§2) IL-8 and TNF-α release from THP-1 cells were measured in cell-free supernatants obtained by centrifugation at 3000 rpm for 5 min and stored at −80 °C until measurement. IL-8 and TNF-α production were assessed by specific sandwich ELISA (Immunotools, Friesoythe, Germany; eBioScience/R&D Systems, Minneapolis, MN, USA). Results are expressed in pg/mL. The limit of detection was 15.6 pg/mL for IL-8 and 4 pg/mL for TNF-α.

NOD1 [2] = biological target: T1, NOD1 (Homo sapiens, UniProt Q9Y239); assay: C12-iE-DAP (NOD1 agonist)-induced IL-8 secretion from THP-1 cells; format: cell-based; conditions: 1 h pretreatment, C12-iE-DAP 10 µM, 20 h, read-out: IC50 (NOD1), inhibition of IL-8 release
T1 construct: THP-1 cells also express high levels of native functional NOD1 and NOD2 and respond to NOD stimulation by IL-8 secretion; endogenous in cells; host or cells: THP-1 cells (Istituto Zooprofilattico di Brescia)
T1 sequence (Q9Y239 1-953): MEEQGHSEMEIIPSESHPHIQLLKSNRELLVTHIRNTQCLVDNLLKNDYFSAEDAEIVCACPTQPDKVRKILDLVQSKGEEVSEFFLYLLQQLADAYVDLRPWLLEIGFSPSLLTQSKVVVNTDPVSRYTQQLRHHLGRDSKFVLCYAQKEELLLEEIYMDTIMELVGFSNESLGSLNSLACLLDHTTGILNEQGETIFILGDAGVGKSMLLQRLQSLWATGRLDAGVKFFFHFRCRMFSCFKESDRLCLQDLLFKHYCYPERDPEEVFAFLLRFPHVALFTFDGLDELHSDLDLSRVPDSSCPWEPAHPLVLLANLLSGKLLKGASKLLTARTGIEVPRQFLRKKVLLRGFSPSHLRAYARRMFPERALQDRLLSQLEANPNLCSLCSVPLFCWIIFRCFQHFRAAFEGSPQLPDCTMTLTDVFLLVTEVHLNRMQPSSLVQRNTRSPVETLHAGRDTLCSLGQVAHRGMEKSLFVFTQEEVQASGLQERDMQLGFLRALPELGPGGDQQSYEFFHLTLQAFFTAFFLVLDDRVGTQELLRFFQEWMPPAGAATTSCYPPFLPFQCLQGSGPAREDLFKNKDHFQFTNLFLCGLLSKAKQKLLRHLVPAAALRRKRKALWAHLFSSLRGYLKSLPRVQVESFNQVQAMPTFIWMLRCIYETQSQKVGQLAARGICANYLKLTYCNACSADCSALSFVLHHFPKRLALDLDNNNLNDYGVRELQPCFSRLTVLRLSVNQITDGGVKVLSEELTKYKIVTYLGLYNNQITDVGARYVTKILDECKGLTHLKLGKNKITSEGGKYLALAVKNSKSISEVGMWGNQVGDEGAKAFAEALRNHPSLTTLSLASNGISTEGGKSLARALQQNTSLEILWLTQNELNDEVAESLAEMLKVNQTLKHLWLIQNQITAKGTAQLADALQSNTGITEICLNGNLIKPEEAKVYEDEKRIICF
Method: For all experiments, THP-1 cells (Istituto Zooprofilattico di Brescia, Brescia, Italy) were diluted to 10^6 cells/mL in RPMI 1640 containing 2 mM L-glutamine, 0.1 mg/mL streptomycin, 100 IU/mL penicillin, 50 μM 2-mercaptoethanol, and supplemented with 10% heat-inactivated fetal calf serum (media) and cultured at 37 °C in 5% CO2. The experiments were carried out on passages 3–12. To evaluate IL-8 and TNF-α production, cultures were set up in 24-well culture plates containing 500 μL of cells. They were pretreated with selected NOD antagonists at increasing concentrations for 1 h before the addition of either MDP or C12-iE-DAP (both at 10 µM) and then incubated for 20 h. Each concentration was tested in duplicate, and untreated cells were exposed to DMSO, which represented the vehicle control (not exceeding 0.2% final concentration). […] Cell-free supernatants were collected at 20 h by centrifugation at 3000 rpm for 5 min and stored at −80 °C.

NOD2 [3] = biological target: T2, NOD2 (Homo sapiens, UniProt Q9HC29); assay: MDP (NOD2 agonist)-induced IL-8 secretion from THP-1 cells; format: cell-based; conditions: 1 h pretreatment, MDP 10 µM, 20 h, read-out: IC50 (NOD2), inhibition of IL-8 release
T2 construct: THP-1 cells also express high levels of native functional NOD1 and NOD2 and respond to NOD stimulation by IL-8 secretion; endogenous in cells; host or cells: THP-1 cells (Istituto Zooprofilattico di Brescia)
Method: as §1, §2
All experiments were performed at least three times, with average values expressed as means ± standard deviation (SD). Statistical analyses were performed using GraphPad Prism 6 (La Jolla, CA, USA). Statistical significance was determined either with the Mann-Whitney or Kruskal-Wallis followed by a post hoc Dunn’s multiple comparison test, as indicated in the figure legends. Differences were considered nonsignificant for p > 0.05, significant (*) for p < 0.05, very significant (**) for p < 0.01 and extremely significant (***) for p < 0.001. IC50 values of NOD1/2 inhibition were calculated by a nonlinear regression model using GraphPad Prism 6 software.

THP-1 cells [4] = assay: LDH leakage cytotoxicity in THP-1 cells; format: cell-based, human; conditions: 20 h
Method: Prior to investigating the effects of selected NOD antagonists on cytokine production, their potential cytotoxicity for THP-1 cells was assessed. Cell viability was assessed by leakage of LDH from damaged cells. LDH is a well-known indicator of cell membrane integrity and cell viability. Cells were treated for 20 h with the compound of interest at concentrations of up to 50 µM. LDH activity was determined in cell-free supernatants using a commercially available colorimetric kit (Takara Bio Inc., Kusatsu, Japan). Results are expressed as OD.

NOD1/2–TLR4 synergy = assay: NOD1/2–TLR4 synergy: TNF-α release from co-stimulated THP-1 cells; format: cell-based, human; conditions: antagonist 10 µM 1 h, NOD agonist 10 µM + LPS 1 ng/mL, 20 h
Method: Figure 5 Effect of selected NOD1/NOD2 antagonists on NOD1/2–TLR4 synergy. The THP-1 cells were preincubated for 1 h with NOD antagonists (at 10 µM) before being stimulated with either C12-iE-DAP or MDP (both at 10 µM) and 1 ng/mL LPS for 20 h, followed by determination of TNF-α release in the supernatant. Columns represent means of duplicates ± SD of three independent experiments. * p < 0.05, ** p < 0.01 and *** p < 0.001 vs. MDP/LPS- or C12-iE-DAP/LPS-treated cells (Kruskal-Wallis test and post hoc Dunn’s multiple comparison test).
For all experiments, THP-1 cells (Istituto Zooprofilattico di Brescia, Brescia, Italy) were diluted to 10^6 cells/mL in RPMI 1640 containing 2 mM L-glutamine, 0.1 mg/mL streptomycin, 100 IU/mL penicillin, 50 μM 2-mercaptoethanol, and supplemented with 10% heat-inactivated fetal calf serum (media) and cultured at 37 °C in 5% CO2. The experiments were carried out on passages 3–12. To evaluate IL-8 and TNF-α production, cultures were set up in 24-well culture plates containing 500 μL of cells. […]
as §2, with “Results are expressed in pg/mL. The limit of detection was 15.6 pg/mL for IL-8 and 4 pg/mL for TNF-α.” left out

NOD1 [5] = conditions: reporter assay, NOD-overexpressing HEK cells; cited from earlier work
NOD2 [6] = conditions: reporter assay, NOD-overexpressing HEK cells; cited from earlier work

T2 sequence (Q9HC29 whole entry): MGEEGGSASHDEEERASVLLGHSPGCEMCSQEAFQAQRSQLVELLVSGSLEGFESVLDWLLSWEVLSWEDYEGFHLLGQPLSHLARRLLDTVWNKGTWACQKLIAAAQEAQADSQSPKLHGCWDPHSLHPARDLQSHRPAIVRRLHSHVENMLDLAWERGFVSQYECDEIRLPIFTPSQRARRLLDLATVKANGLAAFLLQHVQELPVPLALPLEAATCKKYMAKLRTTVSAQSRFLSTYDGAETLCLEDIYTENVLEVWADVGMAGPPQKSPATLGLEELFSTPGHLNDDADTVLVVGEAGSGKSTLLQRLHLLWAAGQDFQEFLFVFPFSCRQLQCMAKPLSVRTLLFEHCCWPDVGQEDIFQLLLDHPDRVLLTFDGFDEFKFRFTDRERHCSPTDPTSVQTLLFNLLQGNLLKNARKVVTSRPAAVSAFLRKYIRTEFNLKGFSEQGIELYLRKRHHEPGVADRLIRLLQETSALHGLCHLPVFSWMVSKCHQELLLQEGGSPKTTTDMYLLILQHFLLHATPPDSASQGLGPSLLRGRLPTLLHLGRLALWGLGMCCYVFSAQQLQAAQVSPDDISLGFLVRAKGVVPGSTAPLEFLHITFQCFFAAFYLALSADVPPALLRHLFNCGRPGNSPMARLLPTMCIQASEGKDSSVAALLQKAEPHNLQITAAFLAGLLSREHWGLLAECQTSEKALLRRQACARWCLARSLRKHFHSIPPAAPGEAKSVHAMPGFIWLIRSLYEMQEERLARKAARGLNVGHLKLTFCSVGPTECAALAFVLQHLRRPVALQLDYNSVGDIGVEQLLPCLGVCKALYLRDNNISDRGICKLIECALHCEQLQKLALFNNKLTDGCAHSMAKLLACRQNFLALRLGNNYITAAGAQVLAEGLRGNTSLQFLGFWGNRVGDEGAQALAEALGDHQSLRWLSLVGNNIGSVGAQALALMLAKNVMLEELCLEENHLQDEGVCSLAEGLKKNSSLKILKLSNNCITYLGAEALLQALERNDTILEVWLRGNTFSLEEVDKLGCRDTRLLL

Row | Structure (SMILES) | TNF-α release from naive THP-1 cells (THP-1 cells [1]) | IL-8 release from naive THP-1 cells (THP-1 cells [1]) | effect on LPS-induced TNF-α production (THP-1 cells [1]) | IC50 (NOD1 [2]) [µM] | IC50 (NOD2 [3]) [µM] | concentrations showing cytotoxicity (LDH leakage) (THP-1 cells [4]) [µM] | effect on TNF-α release from co-stimulated cells (NOD1/2–TLR4 synergy) | IC50 (NOD1 [5]) [µM] | IC50 (NOD2 [6]) [µM]
1 | CC(=O)N[C@H]1C(O)O[C@H](CO)[C@@H](O)[C@@H]1O[C@H](C)C(=O)N[C@@H](C)C(=O)N[C@H](CCC(=O)O)C(N)=O (mixture of isomers) [MDP, muramyl dipeptide] | neither MDP nor C12-iE-DAP produced substantial TNF-α release | dose-dependent increase in IL-8 release | significantly potentiated the production of TNF-α |  |  |  |  |  | 
2 | CCCCCCCCCCCC(=O)N[C@H](CCC(=O)N[C@@H](CCC[C@@H](N)C(=O)O)C(=O)O)C(=O)O [C12-iE-DAP, lauroyl-γ-D-glutamyl-meso-diaminopimelic acid] | neither MDP nor C12-iE-DAP produced substantial TNF-α release | dose-dependent increase in IL-8 release | significantly potentiated the production of TNF-α |  |  |  |  |  | 
3 | O=C(Cn1c(CCNC(=O)c2ccccc2)nc2ccccc21)Nc1ccc2c(c1)CCC2 [GSK669] |  |  |  | > 50 | 1.57 ± 0.15 | ≥ 10 | reduced TNF-α release to the level induced by the TLR4 agonist alone | > 50 | 3.2
4 | Cc1ccc(S(=O)(=O)n2c(N)nc3ccccc32)cc1 [ML130] |  |  |  |  | > 50 |  |  |  | 54.9
5 | C/C=C/Cn1c(=O)c2[nH]c(SCCCc3ccccc3)nc2n(C)c1=O [ML146] |  |  |  | 10.5 ± 1.32 | 32.2 ± 5.16 |  |  | 4.35 | 12.9
6 | CCOC(=O)c1cc2ccccc2n1S(=O)(=O)c1ccc(C)cc1 [SZA-39] |  |  |  | 27.5 ± 6.85 | 14.4 ± 1.97 |  |  | 5.74 | 6.45
